Experimental data reported in patent US6686363B2, “Cyclopropyl containing oxazolidinone antibiotics and derivatives thereof” (Kyorin Pharmaceutical Co., Ltd., priority 2001, dated 2004).
Values after ≈ are worked out from the molar mass of the structure shown.

Tests used:
Format in all cases: cell-based
[1] = system: Enterococcus faecium VRQR (vancomycin resistant, quinolone resistant); test: MIC, agar dilution method on Mueller-Hinton agar with 5% defibrinated horse blood; details: 5% horse blood, 5% CO2, 35C, 24 hours
Description: (§1) The following in vitro results were obtained based on an agar dilution method except for C. pneumoniae. The activity is presented as the minimum inhibitory concentration (MIC) S. aureus and M. catarrhalis were tested on Mueller-Hinton agar, using an approximate inoculum of 1×10^4 cfu/spot an incubation temperature of 35C for 24 hours. The MIC was defined as the lowest concentration at which no visible bacterial growth was observed.
(§2) Streptococci and enterococci were tested on Mueller-Hinton agar supplemented with 5% defibrinated horse blood, using an approximate inoculum of 1×10^4 cfu/spot an incubation temperature of 35C in an atmosphere of 5% CO2 for 24 hours. The MIC was defined as the lowest concentration at which no visible bacterial growth was observed.

[2] = system: Streptococcus pneumoniae IID553; test: as above; details: 5% horse blood, 5% CO2, 35C, 24 hours
Description: as §1, §2

[3] = system: Streptococcus pneumoniae PRQR (penicillin resistant, quinolone resistant); test: as above; details: 5% horse blood, 5% CO2, 35C, 24 hours
Description: as §1, §2

[4] = system: Streptococcus pyogenes IID692; test: as above; details: 5% horse blood, 5% CO2, 35C, 24 hours
Description: as §1, §2

[5] = system: Moraxella catarrhalis ATCC25238; test: MIC, agar dilution method on Mueller-Hinton agar; details: 35C, 24 hours
Description: as §1

[6] = system: Staphylococcus aureus CR (chloramphenicol resistant); test: MIC, agar dilution method on Mueller-Hinton agar; details: 35C, 24 hours
Description: as §1

[7] = system: Staphylococcus aureus MR (methicillin resistant); test: MIC, agar dilution method on Mueller-Hinton agar; details: 35C, 24 hours
Description: as §1

[8] = system: Staphylococcus aureus Smith; test: MIC, agar dilution method on Mueller-Hinton agar; details: 35C, 24 hours
Description: as §1

[9] = system: Chlamydia pneumoniae ATCCVR-1360; test: MIC, chlamydial inclusion assay in infected HeLa 229 cells; details: ATCCVR1360; Chlamydia pneumoniae ATCCVR-1360 in HeLa 229 cells; 72 hours, lowest concentration with no inclusion
Description: C. pneumoniae was tested using minimum essential medium supplemented with 10% heat-inactivated fetal bovine serum, 2 mM L-glutamine, […] cycloheximide and non essential amino acid. HeLa 229 cells were inoculated with 10^4 inclusion-forming units of C. pneumoniae strain per mL. Infected cells were incubated with test compounds in complete medium at 35C in an atmosphere of 5% CO2 for 72 hours. […] The MIC was defined as the lowest concentration at which no inclusion was observed.

CC(=O)NC[C@H]1CN(c2ccc(N3CCOCC3)c(F)c2)C(=O)O1 [Linezolid, reference compound]
MIC [1]: 2 µg/mL (≈ 5.93 µM)
MIC [2]: 2 µg/mL (≈ 5.93 µM)
MIC [3]: 1 µg/mL (≈ 2.96 µM)
MIC [4]: 1 µg/mL (≈ 2.96 µM)
MIC [5]: 4 µg/mL (≈ 11.9 µM)
MIC [6]: 16 µg/mL (≈ 47.4 µM)
MIC [7]: 1 µg/mL (≈ 2.96 µM)
MIC [8]: 1 µg/mL (≈ 2.96 µM)
MIC [9]: 8 µg/mL (≈ 23.7 µM)

CC(=O)NC[C@H]1CN(c2ccc(C3(C#N)CC3)c(F)c2)C(=O)O1 [example 7, N-[5(S)-3-[4-(1-Cyanocyclopropan-1-yl)-3-fluorophenyl]-2-oxooxazolidin-5-ylmethyl]acetamide]
MIC [1]: 0.5 µg/mL (≈ 1.58 µM)
MIC [2]: 1 µg/mL (≈ 3.15 µM)
MIC [3]: 1 µg/mL (≈ 3.15 µM)
MIC [4]: 0.5 µg/mL (≈ 1.58 µM)
MIC [5]: 4 µg/mL (≈ 12.6 µM)
MIC [6]: 4 µg/mL (≈ 12.6 µM)
MIC [7]: 0.5 µg/mL (≈ 1.58 µM)
MIC [8]: 0.5 µg/mL (≈ 1.58 µM)
MIC [9]: 0.5 µg/mL (≈ 1.58 µM)

CC(=S)NC[C@H]1CN(c2ccc(C3(C#N)CC3)c(F)c2)C(=O)O1 [example 8, N-[5(S)-3-[4-(1-Cyanocyclopropan-1-yl)-3-fluorophenyl]-2-oxooxazolidin-5-ylmethyl]thioacetamide]
MIC [1]: 0.25 µg/mL (≈ 0.75 µM)
MIC [2]: 0.25 µg/mL (≈ 0.75 µM)
MIC [3]: 0.25 µg/mL (≈ 0.75 µM)
MIC [4]: 0.125 µg/mL (≈ 0.375 µM)
MIC [5]: 0.5 µg/mL (≈ 1.5 µM)
MIC [6]: 0.5 µg/mL (≈ 1.5 µM)
MIC [7]: 0.125 µg/mL (≈ 0.375 µM)
MIC [8]: 0.125 µg/mL (≈ 0.375 µM)
MIC [9]: 0.25 µg/mL (≈ 0.75 µM)

N#CC1(c2ccc(N3C[C@H](CNc4ccon4)OC3=O)cc2F)CC1 [example 18, 5(S)-3-[4-(1-Cyanocyclopropan-1-yl)-3-fluorophenyl]-5-[N-(1,2-isoxadiazolyl-3-yl)amino]methyloxazolidin-2-one]
MIC [1]: 1 µg/mL (≈ 2.92 µM)
MIC [2]: 1 µg/mL (≈ 2.92 µM)
MIC [3]: 1 µg/mL (≈ 2.92 µM)
MIC [4]: 1 µg/mL (≈ 2.92 µM)
MIC [5]: 8 µg/mL (≈ 23.4 µM)
MIC [6]: 16 µg/mL (≈ 46.7 µM)
MIC [7]: 0.5 µg/mL (≈ 1.46 µM)
MIC [8]: 0.5 µg/mL (≈ 1.46 µM)

COC(=S)NC[C@H]1CN(c2ccc(C3(C#N)CC3)c(F)c2)C(=O)O1 [example 32, O-Methyl N-[5(S)-3-[4-(1-Cyanocyclopropan-1-yl)-3-fluorophenyl]-2-oxooxazolidin-5-ylmethyl]thiocarbonate]
MIC [1]: 0.25 µg/mL (≈ 0.716 µM)
MIC [2]: 0.25 µg/mL (≈ 0.716 µM)
MIC [3]: 0.125 µg/mL (≈ 0.358 µM)
MIC [4]: 0.125 µg/mL (≈ 0.358 µM)
MIC [5]: 0.5 µg/mL (≈ 1.43 µM)
MIC [6]: 2 µg/mL (≈ 5.72 µM)
MIC [7]: 0.125 µg/mL (≈ 0.358 µM)
MIC [8]: 0.125 µg/mL (≈ 0.358 µM)
MIC [9]: 4 µg/mL (≈ 11.4 µM)
